In assay [1] the target is Tropomyosin receptor kinase A (TRKA, NTRK1) (Homo sapiens (Human), UniProt P04629). Briefly: TRKA (NTRK1) enzyme Z'-LYTE assay. In kind it is biochemical. The note with it: arithmetic mean of count n; test compound 1 uM, ATP 1 mM. The method, then: Tropomyosin Receptor Kinase a (TRKA) Activity, % Inhibition
TRKA, also known as neurotrophic tyrosine kinase receptor type 1 (NTKR1) activity was determined by measuring the effect of a test compound on the activity against the NTRK1 enzyme using the ThermoFisher Z'-LYTE Assay fluorescence-based coupled enzyme format (www.thermofisher.com/selectscreen). […] The resulting effect value for the tested compound was compared to the assay controls to determine the % inhibition (%).

Assay [2] relates to IL-2 in activated CD4+ human T-cells. Briefly: IL-2 inhibition in supernatants from activated CD4+ human T-cells (cisbio HTRF). The class given is cell-based. The note with it: T-cell; geometric mean of count n; CD3/CD28-expanded human CD4+ T cells stimulated with ImmunoCult, 20 to 24 hrs. The method, then: IL-2-Inhibition Activity, IC50 (uM)
IL-2 inhibition activity in supernatants from activated CD4+ human T-cells was determined by measuring the effect of a test compound on the activity using the cisbio HTRF™ technology.
Human CD4+ T cells were activated with CD3/CD28 for 3 days and expanded for an additional 4-6 days (7 to 9 days total). On day 0, frozen CD4+ T cells were thawed, treated with CD3/CD28 Dynabeads, and incubated at 37° C./5% CO2. On day 3, the beads were removed, and the cells were diluted to 5×10^5 cells/cm^2, placed in G-Rex10 flask, and incubated at 37° C./5% CO2. On day 7 to day 9 the cells were removed from the G-Rex flasks, counted and diluted back to 1×10^6 cells/ml in standard tissue culture flask.
The expanded CD4+ T-cells were centrifuged at 300×g for 10 minutes and resuspended to 0.5 million cells per ml (30,000 cells/well). 60 μl of CD4+ T cells were added per well to a 384 well plate containing 0.1 μL of varying concentrations of test compound in DMSO. The plates were incubated for 15 min at 37° C./5% CO2. 20 μl of diluted ImmunoCult™ ([…] Technologies, 1:12.5 in T cell assay media) were added to all wells of the plate (1:50 final assay concentration). The plates were incubated for an additional 20 to 24 hrs at 37° C./5% CO2. The plates were centrifuged at 300×g for 10 minutes. 16 μL of supernatant was removed and combined with 4 μl of IL-2 HTRF Abs. (cisbio kit). Plates were incubated for 3 hours at RT and read with an EnVision plate reader at 665 nm and 615 nm wavelengths.
A general note: In TR-FRET formats the signal depends on donor and acceptor labels being close together.

In general, inhibition refers to the relative decrease from the control value, in per cent. As a reminder, the pIC50 is the negative decadic logarithm of the IC50, by convention in mol/L.

pIC50: −log10 of the molar value.

Chain of Tropomyosin receptor kinase A (TRKA, NTRK1) (P04629 33-796): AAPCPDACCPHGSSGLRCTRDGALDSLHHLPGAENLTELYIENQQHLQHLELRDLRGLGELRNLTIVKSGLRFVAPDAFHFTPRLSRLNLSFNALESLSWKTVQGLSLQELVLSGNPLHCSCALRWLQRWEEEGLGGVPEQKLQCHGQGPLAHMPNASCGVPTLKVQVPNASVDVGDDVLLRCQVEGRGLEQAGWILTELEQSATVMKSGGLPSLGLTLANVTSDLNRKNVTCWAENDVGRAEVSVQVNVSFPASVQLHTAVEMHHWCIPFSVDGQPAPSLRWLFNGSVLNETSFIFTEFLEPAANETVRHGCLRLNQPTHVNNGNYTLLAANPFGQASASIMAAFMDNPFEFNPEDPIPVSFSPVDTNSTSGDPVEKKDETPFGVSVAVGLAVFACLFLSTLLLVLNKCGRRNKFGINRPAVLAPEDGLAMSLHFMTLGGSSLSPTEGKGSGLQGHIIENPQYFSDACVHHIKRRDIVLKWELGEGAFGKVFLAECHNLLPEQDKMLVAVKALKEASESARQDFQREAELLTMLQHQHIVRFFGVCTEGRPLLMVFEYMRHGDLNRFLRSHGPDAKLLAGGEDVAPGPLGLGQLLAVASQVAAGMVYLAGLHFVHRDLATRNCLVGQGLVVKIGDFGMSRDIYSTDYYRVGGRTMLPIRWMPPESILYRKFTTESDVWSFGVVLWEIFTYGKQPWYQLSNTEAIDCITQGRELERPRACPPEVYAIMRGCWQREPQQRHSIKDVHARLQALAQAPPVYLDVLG

Take `Cc1cc2[nH]c(-c3n[nH]c4c3C[C@@H]3C[C@]3(C)C4)nc2cc1N(C)C(=O)[C@H](C)C1CCOCC1` [Example 4, (R)—N-methyl-N-(6-methyl-2-((4aS,5aR)-5a-methyl-1,4,4a,5,5a,6-hexahydrocyclopropa[f]indazol-3-yl)-1H-benzo[d]imidazol-5-yl)-2-(tetrahydro-2H-pyran-4-yl)propanamide]: the inhibition at 1 µM in assay [1] came to 95%. The negative-log IC50 (pIC50) in assay [2] is 7.66.
Consider `CCN(C(=O)[C@H](C)N1CCOCC1)c1cc2nc(-c3n[nH]c4c3C[C@@H]3C[C@]3(C)C4)[nH]c2cc1C` [Example 6, (S)—N-ethyl-N-(6-methyl-2-((4aS,5aR)-5a-methyl-1,4,4a,5,5a,6-hexahydrocyclopropa[f]indazol-3-yl)-1H-benzo[d]imidazol-5-yl)-2-morpholinopropanamide], for which the inhibition at 1 µM in assay [1] is 102%. The compound further had a pIC50 in assay [2] of 7.00.
In the case of `CN(C(=O)CC1CCOCC1)c1ccc2[nH]c(-c3n[nH]c4c3C[C@@H]3C[C@]3(C)C4)nc2c1` [Example 10, N-methyl-N-(2-((4aS,5aR)-5a-methyl-1,4,4a,5,5a,6-hexahydrocyclopropa[f]indazol-3-yl)-1H-benzo[d]imidazol-5-yl)-2-(tetrahydro-2H-pyran-4-yl)acetamide], the inhibition at 1 µM in assay [1] was 104%. For the same compound, in assay [2], the negative logarithm of the IC50 (pIC50) is 7.17.
As for `C[C@@H](C(=O)N(C)c1cc(F)c2[nH]c(-c3n[nH]c4c3C[C@@H]3C[C@]3(C)C4)nc2c1)C1CCOCC1` [Example 12, (R)—N-(7-fluoro-2-((4aS,5aR)-5a-methyl-1,4,4a,5,5a,6-hexahydrocyclopropa[f]indazol-3-yl)-1H-benzo[d]imidazol-5-yl)-N-methyl-2-(tetrahydro-2H-pyran-4-yl)propanamide], the inhibition at 1 µM in assay [1] was 94%. Also, the pIC50 in assay [2] was 7.60.
In the case of `C[C@@H](C(=O)N(C)c1ccc2[nH]c(-c3n[nH]c4c3C[C@@H]3C(F)(F)[C@]3(C)C4)nc2c1)N1CCOCC1` [Example 13, (S)—N-(2-((4aS,5aR)-5,5-difluoro-5a-methyl-1,4,4a,5,5a,6-hexahydrocyclopropa[f]indazol-3-yl)-1H-benzo[d]imidazol-5-yl)-N-methyl-2-morpholinopropanamide], the inhibition at 1 µM in assay [1] is 99%. Also, in assay [2], the pIC50 is 8.52.
Taken in the same sequence, the figures for `C[C@@H](C(=O)N(C)c1ccc2[nH]c(-c3n[nH]c4c3C[C@@H]3C[C@]3(C)C4)nc2c1)N1CCOCC1` [Example 14, (S)—N-methyl-N-(2-((4aS,5aR)-5a-methyl-1,4,4a,5,5a,6-hexahydrocyclopropa[f]indazol-3-yl)-1H-benzo[d]imidazol-5-yl)-2-morpholinopropanamide] were 92% and 7.38.
On to `C[C@@H](C(=O)N(C)c1cc(F)c2[nH]c(-c3n[nH]c4c3C[C@@H]3C[C@]3(C)C4)nc2c1)N1CCOCC1` [Example 15, (S)—N-(7-fluoro-2-((4aS,5aR)-5a-methyl-1,4,4a,5,5a,6-hexahydrocyclopropa[f]indazol-3-yl)-1H-benzo[d]imidazol-5-yl)-N-methyl-2-morpholinopropanamide], for which, in assay [1], the inhibition at 1 µM amounted to 107%. In assay [2], this compound gave a pIC50 of 7.38.
Consider `CCN(C(=O)[C@H](C)N1CCOCC1)c1cc(F)c2[nH]c(-c3n[nH]c4c3C[C@@H]3C[C@]3(C)C4)nc2c1` [Example 16, (S)—N-ethyl-N-(7-fluoro-2-((4aS,5aR)-5a-methyl-1,4,4a,5,5a,6-hexahydrocyclopropa[f]indazol-3-yl)-1H-benzo[d]imidazol-5-yl)-2-morpholinopropanamide], for which the inhibition at 1 µM in assay [1] was 116%. The compound further gave a pIC50 in assay [2] of 7.19.
Take `COc1cc2[nH]c(-c3n[nH]c4c3C[C@@H]3C[C@]3(C)C4)nc2cc1N(C)C(=O)[C@H](C)N1CCOCC1` [Example 19, (S)—N-(6-methoxy-2-((4aS,5aR)-5a-methyl-1,4,4a,5,5a,6-hexahydrocyclopropa[f]indazol-3-yl)-1H-benzo[d]imidazol-5-yl)-N-methyl-2-morpholinopropanamide]: the inhibition at 1 µM in assay [1] worked out at 98%. In assay [2], the pIC50 was 7.24.
As to `C[C@@H](C(=O)N(C)c1cc2nc(-c3n[nH]c4c3C[C@@H]3C[C@]3(C)C4)[nH]c2cc1Br)N1CCOCC1` [Example 20, (S)—N-(6-bromo-2-((4aS,5aR)-5a-methyl-1,4,4a,5,5a,6-hexahydrocyclopropa[f]indazol-3-yl)-1H-benzo[d]imidazol-5-yl)-N-methyl-2-morpholinopropanamide], the inhibition at 1 µM in assay [1] was 98%. The same compound had a pIC50 in assay [2] of 7.28.
With `Cc1cc2[nH]c(-c3n[nH]c4c3C[C@@H]3C[C@]3(C)C4)nc2cc1N(C)C(=O)CN1CCO[C@@H](CO)C1` [Example 28, 2-((R)-2-(Hydroxymethyl)morpholino)-N-methyl-N-(6-methyl-2-((4aS,5aR)-5a-methyl-1,4,4a,5,5a,6-hexahydrocyclopropa[f]indazol-3-yl)-1H-benzo[d]imidazol-5-yl)acetamide], in assay [2], the negative logarithm of the IC50 (pIC50) is 6.52.
Compound `Cc1cc2[nH]c(-c3n[nH]c4c3C[C@@H]3C[C@]3(C)C4)nc2cc1N(C)C(=O)CN1CCOC(C)(C)C1` [Example 29, 2-(2,2-Dimethylmorpholino)-N-methyl-N-(6-methyl-2-((4aS,5aR)-5a-methyl-1,4,4a,5,5a,6-hexahydrocyclopropa[f]indazol-3-yl)-1H-benzo[d]imidazol-5-yl)acetamide] had a pIC50 in assay [2] of 7.24.
The compound `Cc1cc2[nH]c(-c3n[nH]c4c3C[C@@H]3C[C@]3(C)C4)nc2cc1N(C)C(=O)CN1CCO[C@H](C)C1` [Example 30, N-Methyl-N-(6-methyl-2-((4aS,5aR)-5a-methyl-1,4,4a,5,5a,6-hexahydrocyclopropa[f]indazol-3-yl)-1H-benzo[d]imidazol-5-yl)-2-((R)-2-methylmorpholino)acetamide] showed a pIC50 in assay [2] of 7.09.
As for `Cc1cc2[nH]c(-c3n[nH]c4c3C[C@@H]3C[C@]3(C)C4)nc2cc1N(C)C(=O)CN1C[C@H](C)O[C@@H](C)C1` [Example 33, 2-((2S,6S)-2,6-Dimethylmorpholino)-N-methyl-N-(6-methyl-2-((4aS,5aR)-5a-methyl-1,4,4a,5,5a,6-hexahydrocyclopropa[f]indazol-3-yl)-1H-benzo[d]imidazol-5-yl)acetamide], the negative-log IC50 (pIC50) in assay [2] was 7.17.
Compound `Cc1cc2[nH]c(-c3n[nH]c4c3C[C@@H]3C[C@]3(C)C4)nc2cc1N(C)C(=O)CC1CCOCC1` [Example 35, N-Methyl-N-(6-methyl-2-((4aS,5aR)-5a-methyl-1,4,4a,5,5a,6-hexahydrocyclopropa[f]indazol-3-yl)-1H-benzo[d]imidazol-5-yl)-2-(tetrahydro-2H-pyran-4-yl)acetamide] showed a pIC50 in assay [2] of 7.30.
On to `Cc1cc2[nH]c(-c3n[nH]c4c3C[C@@H]3C[C@]3(C)C4)nc2cc1N(C)C(=O)CN1CCOCC1=O` [Example 36, N-Methyl-N-(6-methyl-2-((4aS,5aR)-5a-methyl-1,4,4a,5,5a,6-hexahydrocyclopropa[f]indazol-3-yl)-1H-benzo[d]imidazol-5-yl)-2-(3-oxomorpholino)acetamide], for which, in assay [2], the negative-log IC50 (pIC50) was 7.02.
The same measure, in the same setting: to `C[C@@H](C(=O)N(C)c1cc(O)c2[nH]c(-c3n[nH]c4c3C[C@@H]3C[C@]3(C)C4)nc2c1)N1CCOCC1` [Example 39, (S)—N-(7-hydroxy-2-((4aS,5aR)-5a-methyl-1,4,4a,5,5a,6-hexahydrocyclopropa[f]indazol-3-yl)-1H-benzo[d]imidazol-5-yl)-N-methyl-2-morpholinopropanamide] belongs 7.09.
In assay [2], `Cc1c(N(C)C(=O)[C@H](C)N2CCOCC2)cc2nc(-c3n[nH]c4c3C[C@@H]3C[C@]3(C)C4)[nH]c2c1F` [Example 46, (S)—N-(7-fluoro-6-methyl-2-((4aS,5aR)-5a-methyl-1,4,4a,5,5a,6-hexahydrocyclopropa[f]indazol-3-yl)-1H-benzo[d]imidazol-5-yl)-N-methyl-2-morpholinopropanamide] gave a pIC50 of 7.33.
On to `Cc1cc2[nH]c(-c3n[nH]c4c3C[C@@H]3C(F)(F)[C@]3(C)C4)nc2cc1N(C)C(=O)[C@H](C)N1CCOCC1` [Example 53, (S)—N-(2-((4aS,5aR)-5,5-difluoro-5a-methyl-1,4,4a,5,5a,6-hexahydrocyclopropa[f]indazol-3-yl)-5-methyl-1H-benzo[d]imidazol-6-yl)-N-methyl-2-morpholinopropanamide], for which the pIC50 in assay [2] was 8.00.
`CN(C(=O)CC1CCOCC1)c1cc2nc(-c3n[nH]c4c3C[C@@H]3C[C@]3(C)C4)[nH]c2cc1C#N` [Example 54, N-(6-cyano-2-((4aS,5aR)-5a-methyl-1,4,4a,5,5a,6-hexahydrocyclopropa[f]indazol-3-yl)-1H-benzo[d]imidazol-5-yl)-N-methyl-2-(tetrahydro-2H-pyran-4-yl)acetamide]: in assay [2], the negative logarithm of the IC50 (pIC50) was 5.34.

(Values after patent US11661419B2, “Benzimidazole derivative compounds and uses thereof” (Pfizer Inc., priority 2019, dated 2023).)
